2 molecules from US20120122797A1, “PEPTIDIC COMPOUND AND USE OF SAME” (KEIO UNIVERSITY, priority 2009, published 2012) can be followed below.

Common to all, as to format: cell-based
One assay deals with HeLa S3 cell. Put plainly: growth inhibitory activity against HeLa S3 cell. Particulars: Homo sapiens. The text has this: The present inventors conducted research on the derivatives of the compound to complete the present invention.
The cyanobacterium Lyngbya sp. collected in Okinawa Prefecture was extracted with MeOH, and partitioned between H2O and AcOEt. The resulting AcOEt layer was further partitioned between 90% MeOH and n-hexane. The 90% MeOH layer thus obtained was separated and purified with various chromatographies using the growth inhibitory activity against tumor cells as an index. As a result, Bisebromoamide (1), which is a novel peptide, was isolated.
The planar structure of the compound was primarily determined by various two-dimensional NMR spectral analyses. […] Subsequently, in order to determine the absolute configuration of Bisebromoamide (1) including eight chiral centers, acid hydrolysis was conducted using 9 M HCl. The resulting acid hydrolysate was fractionated by HPLC, obtaining fractions of Leu, N-Me-Tyr, 4-Me-Pro, N-Me-Phe, Opp, and that of a mixture of Ala and 2-methylcystine. […] Furthermore, 4-Me-Pro, Opp, Ala, and 2-methylcystine were subjected to derivatization using Marfey's reagent, and then analyzed by reversed phase HPLC. […] However, it also turned out that the Opp and 4-Me-Pro completely epimerized at a-position during the acid hydrolysis. Therefore, we reduced the ketone of Opp using NaBH4 before conducting the acid hydrolysis. […]

For a further assay, the system named is phosphorylation of PLCγ1. Put plainly: protein kinase inhibition: Western blot of phosphorylated PLCγ1 in PDGF-stimulated NRK cells. Particulars: treated 3 hours, PDGF stimulation, 10, 1 and 0.1 μM. As for the experimental part: (§1) NRK cells were seeded in a 96-well plate, and cultured for 3 days. A sample solution was added thereto and treated for 3 hours, followed by PDGF stimulation. Electrophoretic samples were prepared to conduct Western blot using antibodies against phosphorylated signal transduction molecules (AKT, ERK, PKD, PLCγ1, and S6 ribosomal protein) and phosphotyrosine. The effect on the intracellular signal transduction from a PDGF receptor was evaluated. […] The eIF4E, 4E-BP-1, and histone H3 bands confirmed that equal amounts of proteins subjected to electrophoresis.
(§2) Bisebromoamide (1) was added in such a manner that the final concentration became 0.01, 0.1, 1, and 10 μM, in order to determine the presence or absence of inhibition, and the inhibition pattern thereof. The effective inhibitory concentration against each signal transduction molecule activity was investigated.
A general note: In western blotting, separated proteins are transferred to a membrane and probed.

Another assay concerns phosphorylation of ERK. Put plainly: protein kinase inhibition: Western blot of phosphorylated ERK in PDGF-stimulated NRK cells. As for the experimental part:
as §1, §2

The test system of assay [1] is phosphorylation of PKD/PKC. As to the kind of experiment: protein kinase inhibition: Western blot of phosphorylated PKD/PKC in PDGF-stimulated NRK cells. Particulars: treated 3 hours, PDGF stimulation, 10, 1 and 0.1 μM. As for the experimental part:
as §1, §2

Assay [2] relates to phosphorylation of S6 ribosomal protein (S6R). As to the kind of experiment: protein kinase inhibition: Western blot of phosphorylated S6 ribosomal protein in PDGF-stimulated NRK cells. Particulars: treated 3 hours, PDGF stimulation, 10, 1 and 0.1 μM. As to the method: as §1, §2
Assay [3] relates to 39 types of human cancer cells. As to the kind of experiment: growth inhibitory activity screening using 39 types of human cancer cells (sulforhodamine B colorimetric assay). Particulars: 48 h, 39 human cancer cell lines, cultured for 2 days, read-out: average GI50 value across all of the cell lines tested. As to the method: Bisebromoamide (1) is a strong cytotoxic substance containing a high degree of D-amino acids and unusual amino acids. In particular, compounds having a 4-Me-Pro, N-Me-3-bromo-Tyr, and N-pivalamide moiety linking to 4-methylthiazoline are very rare, and the 2-Opp unit is unprecedented in natural products. Bisebromoamide (1) was subjected to screening using 39 types of human cancer cells. […] The average GI50 value across all of the cell lines tested was 40 nM.
Cancer cells were seeded in a 96-well plate. A sample solution was added thereto on the following day, and cultured for 2 days. Cell growth was evaluated by sulforhodamine B colorimetric assay. The 39 total cancer cell lines that were tested included 7 lung cancer (Lu) lines, 6 stomach cancer (St) lines, 5 colon cancer (Co) lines, 6 brain neoplasm (CNS) lines, 5 breast cancer (Br) lines, 2 renal cancer (Re) lines, 2 prostatic cancer (xPg) lines, and 1 melanoma (Me) line. The effective concentration deviation of each cancer cell stock from the mean effective drug concentration of the 39 cancer cell lines measured was calculated and expressed as the fingerprint.
(In general: In SRB staining, fixed cells bind dye roughly in proportion to their protein.)

Another assay relates to phosphorylation of AKT. As to the kind of experiment: protein kinase inhibition: Western blot of phosphorylated AKT in PDGF-stimulated NRK cells. Particulars: treated 3 hours, PDGF stimulation, 10, 1 and 0.1 μM. As to the method:
as §1, §2

A further assay has as its system cancer cell growth. Put plainly: inhibitory activity of derivatives against cancer cell growth. An excerpt: The alcohol and hydrazone were examined for their inhibitory activities against cancer cell growth and phosphorylation of ERK.

Each structure is given as a SMILES string. Converted amounts (≈) assume the structure as drawn. Numbered stars: 1 amine (or outer) side, 2 acyl side, 3 side chain; on linkers, the order of the positions; unused ones are H or OH. Square brackets hold non-standard residues; d marks the D form. Peptide text beside a SMILES is read from it. * marks the point of attachment. ξ: configuration not given here. X1 = C[C@H]1C[C@@H](C2=N[C@](C)(C(=O)[*:2])CS2)N([*:1])C1; ξNMeTyr(3-Br) = CNC(Cc1ccc(O)c(Br)c1)C(=O)O; NMeF = CN[C@@H](Cc1ccccc1)C(=O)O; Piv = CC(C)(C)C(=O)*; X2 = CCC(=O)C1CCCN1*

As a reminder, the IC50 is the concentration at which inhibition is half-maximal. High values mean weaker potency, low ones greater potency. The GI50 is the concentration giving 50% growth inhibition.

For the molecule `CCC(=O)C1CCCN1C(=O)[C@H](Cc1ccccc1)N(C)C(=O)[C@@H](CC(C)C)NC(=O)[C@]1(C)CSC([C@@H]2C[C@H](C)CN2C(=O)C(Cc2ccc(O)c(Br)c2)N(C)C(=O)[C@H](C)NC(=O)C(C)(C)C)=N1` (stereo partly drawn) [Bisebromoamide (1), Bisebromoamide] (Piv-A[ξNMeTyr(3-Br)][X1][dL][NMeF]-X2), in the assay with HeLa S3 cell, the IC50 is 0.04 µg/mL (≈ 0.0391 µM). Besides, in the assay with phosphorylation of PLCγ1, the “effect on phosphorylation of PLCγ1” value is reported as “no effect”. For the same molecule, in the assay with phosphorylation of ERK (NRK cells, treated 3 hours, PDGF stimulation, 10, 1 and 0.1 μM), the “inhibition of phosphorylation of ERK” value was “selectively inhibited”. Moreover, the “effect on phosphorylation of PKD/PKC” value in assay [1] is “no effect”. The “effect on phosphorylation of S6 ribosomal protein (S6R)” value in assay [2] is listed as “no effect”. Besides, the 50% growth inhibitory concentration (GI50) in assay [3] came to 40 nM. Besides, the “effect on phosphorylation of AKT” value with phosphorylation of AKT is reported as “no effect”.

Turning to `CCO` [alcohol], in the assay with phosphorylation of ERK, the “inhibitory activity against phosphorylation of ERK, compared with Bisebromoamide (1)” value was “Results similar to those for Bisebromoamide (1)”. The “inhibitory activity against cancer cell growth, compared with Bisebromoamide (1)” value in the assay on cancer cell growth is listed as “Results similar to those for Bisebromoamide (1)”.
